Assay results published in patent US20240122179A1, “AUXINIC HERBICIDES AND METHODS OF USE THEREOF” (CORTEVA AGRISCIENCE LLC, priority 2021, published 2024).
Like-named read-outs stand apart in the source and are kept apart here.

How the values were obtained:
Assay in all cases: Postemergence herbicide evaluation, percent reduction in plant size vs untreated control, 21 days after treatment
[1] = test system: Ambrosia artemisiifolia (AMBEL); assay type: in vivo, Ambrosia artemisiifolia (common ragweed); conditions: post-emergence, 504 h, AMBEL, postemergence, read-out: Control/Injury; for pest or weed control at 140 g/ha: rate 140 g ae/ha; for pest or weed control at 280 g/ha: rate 280 g ae/ha
Method: (§1) Plants were grown in a soil media composed of 90% by volume Promix BX (Premier Tech Horticulture, Quakertown, PA) and 10% Profile Greens Grade (Profile Products LLC, Buffalo Grove, IL). Promix BX contains approximately 83% Sphagnum Peat Moss, 13% Perlite, 5% vermiculite, and proprietary amounts of limestone, starter fertilizer, and wetting agent. Profile Greens Grade is a sand-sized granule formed from calcining illite and montmorillonite clay. Several seeds of each species were planted in 10 cm square pots and top watered twice daily. Plant material was propagated in a warm greenhouse with temperature ranging from 25 to 28° C. and 50 to 60% relative humidity at the Corteva Global Headquarters (Indianapolis, Indiana, USA). Natural light was supplemented with 1000-watt metal halide overhead lamps with an average illumination of 500 μE m^−2 s^−1 photosynthetic active radiation for 16 consecutive hours each day. Plants were top-watered prior to herbicide application and sub-watered after herbicide application.
(§2) Appropriate amounts of test materials were weighed out into glass vials in their technical form to deliver either 140 or 280 g acid equivalent (ae)/ha. The samples were dissolved in 3 ml of Solvent 1. Solvent 1 is 97% acetone and 3% dimethyl sulfoxide and serves as a general-purpose solvent (GPS) for dissolving technical materials. […] The samples were then diluted to their final concentration using 17 ml of solvent 2 for a total of 20 ml of spray solution. Solvent 2 contains 41.58% GPS, 45.53% water, 11.88% isopropyl alcohol, 0.99% crop oil concentrate and 0.02% Trition X-155 surfactant. All percentages are listed on a volume basis. Dicamba diglycolamine was applied as a formulated herbicide, Clarity™ and diluted with solvent 2 to compare all materials in the same spray solution.
(§3) Herbicide applications were made to 3 to 4 replicates of each plant species at the 2 to 8 leaf stage, depending on the species. Treatments were applied with a research track-sprayer (Generation III Research Sprayer manufactured by DeVries Manufacturing in Hollandale, MN, USA) calibrated to deliver a spray volume of 187 L/ha. The track-sprayer was fitted with an 8003E nozzle from Spray Systems Company (North Avenue and Schmale Road, P.O. Box 7900, Wheaton, IL 60187), and used a spray pressure of 276 kPa pressure and a speed of 3.1 km/h. The nozzle height was 46 cm above the plant canopy. The experimental design used for the trials was a randomized complete block with 3 or 4 replications per treatment. After application, plants were placed on carts according to the randomization and returned to the greenhouse. Plants were sub-watered after treatment with Indianapolis city water or fertilized three times a week with a commercial fertilizer solution (Jack's Professional 15-5-15 4 Ca 2 Mg fertilizer (manufactured by JR PETERS INC., 6656 Grant Way, Allentown, PA 18106; www.jrpeters.com). Percent visual control assessments were made on a scale of 0 to 100% (where 0 was no control and 100 was complete plant death) at 7, 14, and 21 days after treatment.
(§4) In conformity with the methods outlined in Example 49, the effect of representative experimental compounds on the growth of Ambrosia artemisiifolia (AMBEL), (common ragweed), was determined at 2 different levels (respectively, 140 and 280 g acid equivalent (ae)/ha) of the experimental actives tested. Plants were treated with one of the compounds, a control plant was not treated. Twenty-one days after treatment, the plants were measured. The data is present as a percent reduction in plant size relative to the untreated control.

[2] = test system: Amaranthus palmeri (AMAPA); assay type: in vivo, Amaranthus palmeri (Palmer amaranth); conditions: post-emergence, 504 h, postemergence, read-out: Control/Injury; for pest or weed control at 140 g/ha: rate 140 g ae/ha; for pest or weed control at 280 g/ha: rate 280 g ae/ha
Method: as §1, §2, §3
as §4, with “Amaranthus palmeri (AMAPA), common name, Palmer amaranth,” for “Ambrosia artemisiifolia (AMBEL), (common ragweed),”

Amaranthus rudis (AMATA) = assay type: in vivo, Amaranthus rudis (tall water hemp); conditions: Amaranthus tuberculatus, post-emergence, 504 h, AMATA, postemergence, read-out: Control/Injury; for pest or weed control at 140 g/ha: rate 140 g ae/ha; for pest or weed control at 280 g/ha: rate 280 g ae/ha
Method: as §1, §2, §3
as §4, with “Amaranthus rudis (AMATA), common name tall water hemp,” for “Ambrosia artemisiifolia (AMBEL), (common ragweed),”

[3] = test system: Conyza canadensis (L.) (ERICA); assay type: in vivo, Conyza canadensis (L.) (Horseweed); conditions: Erigeron canadensis, post-emergence, 504 h, ERICA, postemergence, read-out: Control/Injury; for pest or weed control at 140 g/ha: rate 140 g ae/ha; for pest or weed control at 280 g/ha: rate 280 g ae/ha
Method: as §1, §2, §3
as §4, with “Conyza canadensis (L.), (ERICA), common name, Horseweed,” for “Ambrosia artemisiifolia (AMBEL), (common ragweed),”

Kochia scoparia (KCHSC) = assay type: in vivo; conditions: Bassia scoparia, post-emergence, 504 h, KCHSC, postemergence, read-out: Control/Injury; for pest or weed control at 140 g/ha: rate 140 g ae/ha; for pest or weed control at 280 g/ha: rate 280 g ae/ha
Method: as §1, §2, §3
as §4, with “Kochia scoparia (KCHSC)” for “Ambrosia artemisiifolia (AMBEL), (common ragweed),”

[4] = percent reduction vs untreated, 21 days after treatment
[5] = R-AMAPA, percent reduction vs untreated control, 21 days after treatment
[6] = percent reduction vs untreated control, 21 days after treatment

Compound	pest or weed control at 140 g/ha [1]	pest or weed control at 280 g/ha [1]	pest or weed control at 140 g/ha ([2]; AMAPA)	pest or weed control at 280 g/ha ([2]; AMAPA)	pest or weed control at 140 g/ha (Amaranthus rudis (AMATA))	pest or weed control at 280 g/ha (Amaranthus rudis (AMATA))	pest or weed control at 140 g/ha [3]	pest or weed control at 280 g/ha [3]	pest or weed control at 140 g/ha (Kochia scoparia (KCHSC); [4])	pest or weed control at 280 g/ha (Kochia scoparia (KCHSC); [4])	pest or weed control at 140 g/ha [2, 5]	pest or weed control at 280 g/ha [2, 5]	pest or weed control at 140 g/ha [3, 6]	pest or weed control at 280 g/ha [3, 6]	pest or weed control at 140 g/ha (Kochia scoparia (KCHSC))	pest or weed control at 280 g/ha (Kochia scoparia (KCHSC))	pest or weed control at 140 g/ha [3, 4]	pest or weed control at 280 g/ha [3, 4]
COc1c(Cl)ccc(Cl)c1C(=O)NN1CCOCC1 [Compound A-127]	30%	63%	20%	23%	30%	35%	18%	13%	3%	5%								
COc1c(Cl)ccc(Cl)c1C(=O)n1cnc2ccccc21 [Compound A-115]	5%	28%	20%	38%	15%	38%	3%	13%	8%	13%								
CCN(CC)C(=O)c1c(Cl)ccc(Cl)c1OC [Compound A-107]	10%	18%	9%	18%	2%	18%	3%	5%	0%	0%								
CCc1nnc(OC(=O)c2c(Cl)ccc(Cl)c2OC)s1 [Compound A-119]	5%	10%	8%	20%	20%	13%	0%	10%	10%	3%								
COc1c(Cl)ccc(Cl)c1C(=O)Oc1noc2ccccc12 [Compound A-122]	73%	97%	28%	45%	38%	50%	95%	100%	80%	93%								
CCN(CC)OC(=O)c1c(Cl)ccc(Cl)c1OC [Compound A-64]	5%	12%			3%	2%					3%	20%	3%	10%	0%	3%		
COc1c(Cl)ccc(Cl)c1C(=O)Oc1nccs1 [Compound A-103]	28%	12%	35%	30%	8%	18%	0%	3%	0%	3%								
COc1c(Cl)ccc(Cl)c1C(=O)ONC(N)=O [Compound A-67]	3%	3%			0%	2%					13%	10%	2%	3%	3%	2%		
COc1c(Cl)ccc(Cl)c1C(=O)N1CCOCC1 [Compound A-65]	40%	55%			15%	23%					33%	33%	8%	28%	28%	37%		
COc1c(Cl)ccc(Cl)c1C(=O)O/N=C(\N)CCCCCC/C(N)=N/OC(=O)c1c(Cl)ccc(Cl)c1OC [Compound A-147]	80%	81%			59%	49%			93%	88%	43%	38%					50%	60%
